From patent publication US9593108B2, “Compounds and methods for antiviral treatment” (PTC Therapeutics, Inc., priority 2009, dated 2017)
pIC50: −log10 of the molar value.

Assays:
[1] = tested on: HCV replicon RNA (GenBank Accession No. AJ242654); assay: HCV Replicon Assay (replicon RNA reduction and/or Fluc reporter signal); assay type: cell-based, Hepatitis C virus; conditions: Hepatitis C virus, 72 h, replicon-containing cells cultured with test compound for up to 3 days
Summary of the method: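 Bicistronic replicon-containing cells cultured with compound for up to 3 days, with interferon as positive control. Inhibition quantified by replicon RNA reduction and/or Fluc reporter signal; IC50 values generally derived from replicon RNA reduction.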

CCCS(=O)(=O)Nc1ccc(-c2c(C#N)c3cc(C(F)(F)F)cnc3n2C2CCC2)cc1 [Cpd 247, N-{4-[3-cyano-1-cyclobutyl-5-(trifluoromethyl)-1H-pyrrolo[2,3-b]pyridin-2-yl]phenyl}propane-1-sulfonamide]
pIC50 [1]: 5.70 to 6.30
melting point: 180 to 181 °C

COc1cnc2c(c1)c(C#N)c(-c1ccc(S(=O)(=O)N[C@@H](C)C(F)(F)F)cn1)n2C1CCCC1 [Cpd 248, 6-(3-cyano-1-cyclopentyl-5-methoxy-1H-pyrrolo[2,3-b]pyridin-2-yl)-N-[(2S)-1,1,1-trifluoropropan-2-yl]pyridine-3-sulfonamide]
pIC50 [1]: > 6.30
melting point: 178 to 180 °C

C[C@@H](NS(=O)(=O)c1ccc(-c2c(C#N)c3cc(C4CC4)cnc3n2C2CCCC2)nc1)C(F)(F)F [Cpd 249, 6-(3-cyano-1-cyclopentyl-5-cyclopropyl-1H-pyrrolo[2,3-b]pyridin-2-yl)-N-[(2R)-1,1,1-trifluoropropan-2-yl]pyridine-3-sulfonamide]
pIC50 [1]: 5.70 to 6.30
melting point: 155 to 164 °C

C[C@H](NS(=O)(=O)c1ccc(-c2c(C#N)c3cc(C4CC4)cnc3n2C2CCCC2)nc1)C(F)(F)F [Cpd 250, 6-(3-cyano-1-cyclopentyl-5-cyclopropyl-1H-pyrrolo[2,3-b]pyridin-2-yl)-N-[(2S)-1,1,1-trifluoropropan-2-yl]pyridine-3-sulfonamide]
pIC50 [1]: > 6.30
melting point: 157 to 167 °C

Cc1cnc2c(c1)c(C#N)c(-c1ccc(S(=O)(=O)N[C@H](C)C(F)(F)F)cn1)n2C1CCCC1 [Cpd 254, 6-(3-cyano-1-cyclopentyl-5-methyl-1H-pyrrolo[2,3-b]pyridin-2-yl)-N-[(2R)-1,1,1-trifluoropropan-2-yl]pyridine-3-sulfonamide]
pIC50 [1]: > 6.30
melting point: 155 to 162 °C

Cc1cnc2c(c1)c(C#N)c(-c1ccc(S(=O)(=O)NC3(C)CC3)cn1)n2C1CCCC1 [Cpd 256, 6-(3-cyano-1-cyclopentyl-5-methyl-1H-pyrrolo[2,3-b]pyridin-2-yl)-N-(1-methylcyclopropyl)pyridine-3-sulfonamide]
pIC50 [1]: 5.70 to 6.30
melting point: 143 to 153 °C

COc1cnc2c(c1)c(C#N)c(-c1ccc(S(=O)(=O)N(C(C)=O)[C@@H](C)C(F)(F)F)cn1)n2C1CCCC1 [Cpd 257, N-{[6-(3-cyano-1-cyclopentyl-5-methoxy-1H-pyrrolo[2,3-b]pyridin-2-yl)pyridin-3-yl]sulfonyl}-N-[(2S)-1,1,1-trifluoropropan-2-yl]acetamide]
pIC50 [1]: > 6.30
melting point: 169 to 173 °C

CCc1nc2c(cc1OC)c(C#N)c(-c1ccc(S(=O)(=O)N[C@@H](C)C(F)(F)F)cn1)n2C1CCC1 [Cpd 258, 6-(3-cyano-1-cyclobutyl-6-ethyl-5-methoxy-1H-pyrrolo[2,3-b]pyridin-2-yl)-N-[(2S)-1,1,1-trifluoropropan-2-yl]pyridine-3-sulfonamide]
pIC50 [1]: > 6.30
melting point: 186 to 189 °C

CCc1nc2c(cc1OC)c(C#N)c(-c1ccc(S(=O)(=O)N[C@H](C)C(F)(F)F)cn1)n2C1CCC1 [Cpd 259, 6-(3-cyano-1-cyclobutyl-6-ethyl-5-methoxy-1H-pyrrolo[2,3-b]pyridin-2-yl)-N-[(2R)-1,1,1-trifluoropropan-2-yl]pyridine-3-sulfonamide]
pIC50 [1]: 5.30 to 5.70
melting point: 189 to 199 °C

CCC(NS(=O)(=O)c1ccc(-c2c(C#N)c3cc(Cl)cnc3n2C2CCCC2)nc1)C(F)(F)F (stereo not drawn) [Cpd 260, 6-(5-chloro-3-cyano-1-cyclopentyl-1H-pyrrolo[2,3-b]pyridin-2-yl)-N-(1,1,1-trifluorobutan-2-yl)pyridine-3-sulfonamide]
pIC50 [1]: > 6.30
melting point: 170 to 174 °C

CCC(NS(=O)(=O)c1ccc(-c2c(C#N)c3cc(OC)cnc3n2C2CCC2)nc1)C(F)(F)F (stereo not drawn) [Cpd 261, 6-(3-cyano-1-cyclobutyl-5-methoxy-1H-pyrrolo[2,3-b]pyridin-2-yl)-N-(1,1,1-trifluorobutan-2-yl)pyridine-3-sulfonamide]
pIC50 [1]: > 6.30
melting point: 185 to 190 °C

Cc1cnc2c(c1)c(C#N)c(-c1ccc(S(=O)(=O)N[C@H](C)C(F)(F)F)cc1)n2C1CCCC1 [Cpd 262, 4-(3-cyano-1-cyclopentyl-5-methyl-1H-pyrrolo[2,3-b]pyridin-2-yl)-N-[(2R)-1,1,1-trifluoropropan-2-yl]benzenesulfonamide]
pIC50 [1]: > 6.30
melting point: 189 to 195 °C

Cc1cnc2c(c1)c(C#N)c(-c1ccc(S(=O)(=O)N[C@@H](C)C(F)(F)F)cc1)n2C1CCCC1 [Cpd 263, 4-(3-cyano-1-cyclopentyl-5-methyl-1H-pyrrolo[2,3-b]pyridin-2-yl)-N-[(2S)-1,1,1-trifluoropropan-2-yl]benzenesulfonamide]
pIC50 [1]: > 6.30
melting point: 191 to 196 °C

Cc1cnc2c(c1)c(C#N)c(-c1ccc(NC(C)C)cc1)n2C1CCC1 [Cpd 264, 1-cyclobutyl-5-methyl-2-[4-(propan-2-ylamino)phenyl]-1H-pyrrolo[2,3-b]pyridine-3-carbonitrile]
pIC50 [1]: > 6.30
melting point: 193 to 199 °C

Cc1cnc2c(c1)c(C#N)c(-c1ccc(NC(=O)C(C)C)cc1)n2C1CCC1 [Cpd 265, N-[4-(3-cyano-1-cyclobutyl-5-methyl-1H-pyrrolo[2,3-b]pyridin-2-yl)phenyl]-2-methylpropanamide]
pIC50 [1]: 5.70 to 6.30
melting point: 134 to 140 °C

Cc1cnc2c(c1)c(C#N)c(-c1ccc(NC(=O)NC(C)C)cc1)n2C1CCC1 [Cpd 266, 1-[4-(3-cyano-1-cyclobutyl-5-methyl-1H-pyrrolo[2,3-b]pyridin-2-yl)phenyl]-3-propan-2-ylurea]
pIC50 [1]: > 6.30
melting point: 224 to 231 °C

Cc1cnc2c(c1)c(C#N)c(-c1ccc(NS(=O)(=O)C(C)C)cc1)n2C1CCC1 [Cpd 267, N-[4-(3-cyano-1-cyclobutyl-5-methyl-1H-pyrrolo[2,3-b]pyridin-2-yl)phenyl]propane-2-sulfonamide]
pIC50 [1]: 5.70 to 6.30
melting point: 155 to 164 °C

COc1cnc2c(c1)c(C#N)c(-c1ccc(S(=O)(=O)N[C@H](C)C(F)(F)F)cn1)n2C1CCCC1 [Cpd 268, 6-(3-cyano-1-cyclopentyl-5-methoxy-1H-pyrrolo[2,3-b]pyridin-2-yl)-N-[(2R)-1,1,1-trifluoropropan-2-yl]pyridine-3-sulfonamide]
pIC50 [1]: 5.70 to 6.30
melting point: 181 to 184 °C

C[C@H](NS(=O)(=O)c1ccc(-c2c(C#N)c3cc(Cl)cnc3n2-c2ncccn2)nc1)C(F)(F)F [Cpd 270, 6-[5-chloro-3-cyano-1-(pyrimidin-2-yl)-1H-pyrrolo[2,3-b]pyridin-2-yl]-N-[(2S)-1,1,1-trifluoropropan-2-yl]pyridine-3-sulfonamide]
pIC50 [1]: > 6.30
melting point: 223 to 225 °C

COc1cnc2c(c1)c(C#N)c(-c1ccc(S(=O)(=O)NC(C)(C)C)cn1)n2C1CCC1 [Cpd 271, N-tert-butyl-6-(3-cyano-1-cyclobutyl-5-methoxy-1H-pyrrolo[2,3-b]pyridin-2-yl)pyridine-3-sulfonamide]
pIC50 [1]: 5.70 to 6.30
melting point: 174 to 176 °C

CSc1cnc2c(c1)c(C#N)c(-c1ccc(S(=O)(=O)N[C@@H](C)C(F)(F)F)cn1)n2C1CCCC1 [Cpd 272, 6-[3-cyano-1-cyclopentyl-5-(methylsulfanyl)-1H-pyrrolo[2,3-b]pyridin-2-yl]-N-[(2S)-1,1,1-trifluoropropan-2-yl]pyridine-3-sulfonamide]
pIC50 [1]: > 6.30
melting point: 168 to 172 °C
